The results in this text go back to ChEMBL document CHEMBL1201862, “PubChem BioAssay data set” (2004).

Series [1] can be described thus: viability loss in HepG2 hepatoma cells – cell-based, ATP luminescence, cherry-pick, activator set 2, cytotoxicity control, dose response (AID 1053143). Format: functional.
The subject of another series is Streptococcus. Briefly: GAS UMAA2166 growth inhibition – luminescence, BacTiterGlo, counter-screen for streptokinase expression inhibitor project, dose response (AID 1915).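 Further: potency for reduction of bacterial viability or growth.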 Format: functional, organism-based. In general terms: The purpose of a counterscreen is to sort out artefacts and off-target activity.
Series [2] can be described thus: Trypanosoma cruzi growth suppression in host cells – NIH3T3 host cells, beta-gal luminescence, confirmation (AID 2044).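 Further: intracellular parasites grown in NIH/3T3 mouse fibroblasts as host cells; luminescent beta-galactosidase reporter signal from transgenic T. cruzi replicating inside host cells; inhibitors lower the luminescence signal.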 It is filed as functional, cell-based.
A short description of series [3]: NIH3T3 cell viability loss – ATP luminescence, mouse fibroblasts, counter-screen, dose response (AID 2010).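 Further: cells exposed to compound for about 90 hours before reading.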 It is filed as functional, cell-based.
The test system of series [4] is Streptococcus sp. 'group A'. Nature of the series: Streptococcus pyogenes SK(-)GAS viability under kanamycin – luminescence, BacTiterGlo, confirmation, counter-screen for streptokinase expression inhibitor project, dose response (AID 1900). Format: functional, organism-based.
In series [5] the target is ADP-ribosylation factor GTPase-activating protein 1 (Rattus norvegicus, UniProt Q62848). Nature of the series: Fluorescence polarization-based biochemical high throughput dose response screening assay to identify inhibitors of ADP-ribosylation factor GTPase activating protein 1 (ARFGAP1). Format: functional.
A further series concerns HT-1080. Nature of the series: HT1080 cell viability loss – fluorescence readout (AID 620). It is filed as functional, cell-based. Particulars: Homo sapiens.
Series [6] concerns the target Luciferin 4-monooxygenase (Photinus pyralis, UniProt P08659). Nature of the series: Counter Screen for Luciferase-based Assay Positives. [Related pubchem assays: 620, 618, 411 ].
For series [7], the target named is T1, Nuclear receptor subfamily 0 group B member 1 (Homo sapiens, UniProt P51843).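 Further: HEK293T cells transfected with SF-1 and DAX-1 plus StAR promoter luciferase reporter.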
T1 sequence (P51843 whole entry): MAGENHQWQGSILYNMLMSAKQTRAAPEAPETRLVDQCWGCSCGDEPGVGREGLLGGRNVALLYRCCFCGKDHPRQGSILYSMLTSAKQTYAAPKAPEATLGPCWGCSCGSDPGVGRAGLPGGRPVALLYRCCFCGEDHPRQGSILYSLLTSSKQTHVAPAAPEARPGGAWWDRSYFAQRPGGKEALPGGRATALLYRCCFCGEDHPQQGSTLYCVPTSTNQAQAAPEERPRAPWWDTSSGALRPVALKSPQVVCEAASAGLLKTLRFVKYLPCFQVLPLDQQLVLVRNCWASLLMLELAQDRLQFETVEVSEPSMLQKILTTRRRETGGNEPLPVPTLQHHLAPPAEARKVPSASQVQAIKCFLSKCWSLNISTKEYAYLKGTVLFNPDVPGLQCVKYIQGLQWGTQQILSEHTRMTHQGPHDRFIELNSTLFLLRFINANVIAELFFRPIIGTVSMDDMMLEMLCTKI
It is filed as functional, cell-based.

A short description of series [8]: toxicity toward HepG2 liver cells – cell-based, plate reader, cherry-pick, antagonist series, cytotoxicity control, dose response (AID 743416). It is filed as functional.
Series [9] is described as follows: blockers of bursicon-stimulated LGR2 cAMP reporter – cell-based, HEK293, CRE-luciferase reporter, cherry pick, set 2, dose response (AID 743343).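 Further: transfected cells were stimulated with diluted bursicon conditioned medium after compound addition.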 It is filed as functional. In general terms: A reporter such as luciferase makes a cellular process visible.
A further series in a line: cells. It is filed as functional, cell-based.
A short description of series [10]: A549 cell cytotoxicity, dose response, cytotoxicity control, plate reader, cherry-pick, antagonist series (AID 743412). It is filed as functional, cell-based.
Series [11] can be described thus: blockade of melanocortin 4 receptor signaling – cell-based, plate reader, cherry pick, counter-screen for LGR2 antagonist project, dose response (AID 743444).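 Further: transfected HEK 293 cells stimulated with alpha-MSH peptide; potency of inhibitors of the alpha-MSH evoked signal.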 It is filed as functional.
The target in series [12] is T2, Sentrin-specific protease 8 (Homo sapiens, UniProt Q96LD8).
T2 sequence (Q96LD8 whole entry): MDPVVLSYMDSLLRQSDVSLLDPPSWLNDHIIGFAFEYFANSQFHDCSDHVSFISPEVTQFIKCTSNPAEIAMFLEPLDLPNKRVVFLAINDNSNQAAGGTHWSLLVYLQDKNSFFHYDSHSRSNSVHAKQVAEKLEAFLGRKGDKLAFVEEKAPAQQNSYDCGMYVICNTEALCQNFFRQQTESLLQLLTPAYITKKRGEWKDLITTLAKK
It is filed as functional.

The target in series [13] is T2, Sentrin-specific protease 8. It is filed as functional. This is another data set of the same source.
Series [14] is described as follows: viability loss in HEK293T cells – cell-based, CellTiter-Glo luminescence, dry powder, set 6, cytotoxicity control, dose response (AID 651949). Format: functional. As to conditions: HEK293. A general note: Cellular ATP, detected with luciferase, serves as a proxy for viable cell number.
The nature of series [15]: Luminescence Cell-Based Dose Response to Identify Activators of Luciferase Translation or Activity in H4-C Neuroglioblastoma Cells. [Related pubchem assays: 1829 (Project Summary), 1814 (Primary HTS)]. Format: functional.
The nature of series [16]: Luminescence Cell-Based Dose Response HTS to Identify Activators of Luciferase Translation or Activity in H4 […] Cells. [Related pubchem assays: 1829 (Project Summary), 1814 (Primary HTS)]. It is filed as functional.
Series [17] is described as follows: Luminescence Cell-Based Dose Confirmation to Identify Activators of 5'UTR Stem-Loop Driven Alpha-Synuclein mRNA Translation in H4 Neuroglioblastoma Cells. [Related pubchem assays: 1829 (Project Summary), 1814 (Primary HTS)]. Format: functional.
Series [18] is described as follows: growth inhibition of replicating M. tuberculosis, dose response, counter-screen, dry powder, IC90 (AID 651617). Format: functional. As to conditions: Mycobacterium tuberculosis.
Series [19] in a line: Luminescence Cell-Based Dose Response to Identify Activators of 5'UTR Stem-Loop Driven Prion Protein mRNA Translation in H4-C Neuroglioblastoma Cells. [Related pubchem assays: 1829 (Project Summary), 1814 (Primary HTS)]. It is filed as functional.
Another series addresses Cytochrome P450 2C9 (Homo sapiens, UniProt P11712).
Series [20] in a line: inhibitors of non-replicating M. tuberculosis, dose response, luciferase, dry powder (AID 651620). Particulars: Mycobacterium tuberculosis. Format: functional.
A short description of series [21]: inhibitors of non-replicating M. tuberculosis, dose response, luciferase, dry powder (AID 651619). Format: functional. Particulars: Mycobacterium tuberculosis.
Series [22] deals with Potassium channel subfamily K member 3 (Homo sapiens, UniProt O14649). Nature of the series: inhibition of human KCNK3 channel flux – CHO cells, FluxOR thallium flux, SAR follow-up (AID 652212). Format: functional.
Series [23] deals with Potassium channel subfamily K member 9 (Homo sapiens, UniProt Q9NPC2). Briefly: KCNK9 flux blockade, concentration-response – cell-based, FluxOR thallium flux, selectivity assay for TASK1 inhibitor project, SAR follow-up (AID 652211).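 Further: potency is for inhibitors of the channel.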 It is filed as functional.
The target of series [24] is Fructose-bisphosphate aldolase (Mycobacterium tuberculosis, UniProt P9WQA3). Briefly: Fluorescence-based biochemical high throughput dose response assay for inhibitors of the fructose-bisphosphate aldolase (FBA) of M. tuberculosis. Format: functional.
Series [25] concerns the target COUP transcription factor 2 (Homo sapiens, UniProt P24468). Nature of the series: Luminescence-based cell-based high throughput dose response assay to identify inhibitors of COUP-TFII (NR2F2). Format: functional.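 Further: HEK293 cells transiently cotransfected with COUP-TFII expression vector and reporter; luciferase reporter luminescence driven by COUP-TFII from the pX2-168 reporter plasmid.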
A further series deals with HeLa. Nature of the series: viability loss in HeLa cells – cell-based, ATP luminescence, cherry-pick samples, cytotoxicity control, dose response (AID 687004). It is filed as functional. As to conditions: Homo sapiens.

Activity calls are given as the source filed them. Where only a bound is given, the exact number is not on record here.

Chain of COUP transcription factor 2 (P24468 whole entry): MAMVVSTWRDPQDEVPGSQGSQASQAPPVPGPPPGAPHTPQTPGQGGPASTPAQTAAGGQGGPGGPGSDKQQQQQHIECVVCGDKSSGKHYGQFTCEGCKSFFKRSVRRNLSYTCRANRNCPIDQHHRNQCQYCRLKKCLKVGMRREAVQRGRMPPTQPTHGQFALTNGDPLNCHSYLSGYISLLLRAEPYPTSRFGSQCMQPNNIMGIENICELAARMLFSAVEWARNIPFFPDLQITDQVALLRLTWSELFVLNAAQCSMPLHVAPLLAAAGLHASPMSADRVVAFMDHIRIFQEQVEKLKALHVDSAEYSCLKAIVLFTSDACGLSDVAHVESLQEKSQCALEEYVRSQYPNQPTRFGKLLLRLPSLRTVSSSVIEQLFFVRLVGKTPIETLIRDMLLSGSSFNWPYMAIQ
Chain of Fructose-bisphosphate aldolase (P9WQA3 whole entry): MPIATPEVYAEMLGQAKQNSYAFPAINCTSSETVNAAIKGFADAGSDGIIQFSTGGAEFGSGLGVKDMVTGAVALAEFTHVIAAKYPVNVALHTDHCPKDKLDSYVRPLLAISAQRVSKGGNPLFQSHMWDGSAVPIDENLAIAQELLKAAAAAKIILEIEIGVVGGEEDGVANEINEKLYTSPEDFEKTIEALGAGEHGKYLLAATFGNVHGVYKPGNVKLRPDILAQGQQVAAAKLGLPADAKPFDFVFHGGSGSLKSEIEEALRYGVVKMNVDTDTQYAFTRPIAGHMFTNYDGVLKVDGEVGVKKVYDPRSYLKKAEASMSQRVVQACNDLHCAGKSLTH
Chain of Potassium channel subfamily K member 3 (O14649 whole entry): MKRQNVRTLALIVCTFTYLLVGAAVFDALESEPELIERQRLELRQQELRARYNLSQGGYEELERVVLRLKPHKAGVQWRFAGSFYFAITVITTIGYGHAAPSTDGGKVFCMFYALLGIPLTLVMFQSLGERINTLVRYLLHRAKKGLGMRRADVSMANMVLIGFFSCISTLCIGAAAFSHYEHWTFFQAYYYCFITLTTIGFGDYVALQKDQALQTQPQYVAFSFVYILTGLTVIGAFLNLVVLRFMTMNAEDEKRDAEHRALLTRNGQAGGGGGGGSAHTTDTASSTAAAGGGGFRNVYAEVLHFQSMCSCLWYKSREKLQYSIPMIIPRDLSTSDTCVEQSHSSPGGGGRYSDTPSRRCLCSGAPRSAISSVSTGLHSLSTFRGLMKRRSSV
Chain of Potassium channel subfamily K member 9 (Q9NPC2 whole entry): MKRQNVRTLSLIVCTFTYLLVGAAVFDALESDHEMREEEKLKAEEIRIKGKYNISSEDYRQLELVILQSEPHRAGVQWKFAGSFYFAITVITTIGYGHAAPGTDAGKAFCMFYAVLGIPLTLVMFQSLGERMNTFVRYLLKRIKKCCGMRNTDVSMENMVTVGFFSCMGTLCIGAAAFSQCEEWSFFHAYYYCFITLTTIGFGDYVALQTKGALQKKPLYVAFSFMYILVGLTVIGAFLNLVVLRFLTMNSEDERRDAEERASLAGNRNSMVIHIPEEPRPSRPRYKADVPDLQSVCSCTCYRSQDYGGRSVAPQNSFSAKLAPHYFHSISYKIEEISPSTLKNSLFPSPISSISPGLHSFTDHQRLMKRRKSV
Chain of Cytochrome P450 2C9 (P11712 whole entry): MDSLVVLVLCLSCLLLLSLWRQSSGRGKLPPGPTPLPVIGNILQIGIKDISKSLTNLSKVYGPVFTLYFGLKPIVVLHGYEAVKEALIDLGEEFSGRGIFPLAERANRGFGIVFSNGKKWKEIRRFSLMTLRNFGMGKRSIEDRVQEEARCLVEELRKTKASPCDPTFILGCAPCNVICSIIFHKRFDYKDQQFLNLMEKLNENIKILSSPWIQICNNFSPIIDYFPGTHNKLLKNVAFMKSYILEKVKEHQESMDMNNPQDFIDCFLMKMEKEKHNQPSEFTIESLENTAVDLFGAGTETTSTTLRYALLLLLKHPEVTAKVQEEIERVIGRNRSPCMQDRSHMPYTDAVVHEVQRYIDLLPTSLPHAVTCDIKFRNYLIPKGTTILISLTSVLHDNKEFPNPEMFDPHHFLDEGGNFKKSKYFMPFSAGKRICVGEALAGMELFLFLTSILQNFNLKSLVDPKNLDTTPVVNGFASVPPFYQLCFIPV
Chain of ADP-ribosylation factor GTPase-activating protein 1 (Q62848 whole entry): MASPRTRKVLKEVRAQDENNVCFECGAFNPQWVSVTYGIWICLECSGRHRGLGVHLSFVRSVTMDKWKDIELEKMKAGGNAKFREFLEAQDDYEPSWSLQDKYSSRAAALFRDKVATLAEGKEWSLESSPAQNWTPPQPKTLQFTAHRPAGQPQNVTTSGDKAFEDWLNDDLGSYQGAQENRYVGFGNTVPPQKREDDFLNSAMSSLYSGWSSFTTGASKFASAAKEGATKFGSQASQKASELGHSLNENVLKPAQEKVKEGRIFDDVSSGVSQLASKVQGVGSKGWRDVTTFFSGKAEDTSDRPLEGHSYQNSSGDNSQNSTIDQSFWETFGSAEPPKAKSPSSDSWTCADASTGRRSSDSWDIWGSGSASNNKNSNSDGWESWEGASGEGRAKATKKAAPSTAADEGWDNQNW
Chain of Luciferin 4-monooxygenase (P08659 whole entry): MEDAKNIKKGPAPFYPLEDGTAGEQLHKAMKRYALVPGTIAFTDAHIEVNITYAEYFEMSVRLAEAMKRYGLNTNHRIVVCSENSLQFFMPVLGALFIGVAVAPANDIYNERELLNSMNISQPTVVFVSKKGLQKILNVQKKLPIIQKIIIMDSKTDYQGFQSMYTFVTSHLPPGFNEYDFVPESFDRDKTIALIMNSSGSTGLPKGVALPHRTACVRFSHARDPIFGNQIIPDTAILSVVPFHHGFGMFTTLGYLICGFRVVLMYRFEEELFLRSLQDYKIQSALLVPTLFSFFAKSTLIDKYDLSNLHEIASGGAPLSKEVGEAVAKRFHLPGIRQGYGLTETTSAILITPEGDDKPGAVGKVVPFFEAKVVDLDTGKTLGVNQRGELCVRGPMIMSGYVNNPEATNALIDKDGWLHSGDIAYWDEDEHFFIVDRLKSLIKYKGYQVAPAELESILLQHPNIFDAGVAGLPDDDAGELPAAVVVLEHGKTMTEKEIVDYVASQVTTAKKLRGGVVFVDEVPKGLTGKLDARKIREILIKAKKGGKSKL

As a reminder, the AC50 is the midpoint of the concentration-response curve, whichever way the signal moves. One may read the EC50 as the concentration needed to bring the measured effect to its halfway point. Turning to `CCOc1ccc2c(c1)C(=NNC(=O)c1ccncc1)c1cc(OCC)ccc1-2`, the half-maximal activity concentration (AC50) in series [1] is 26 µM (active). The 50% effective concentration (EC50) is 3.66 µM (active) with Streptococcus, 0.825 µM (active) in [2], > 60 µM (inconclusive) in [3] and 0.894 µM (active) in series [4].
In general, IC50 refers to the concentration at which inhibition is half-maximal. For the molecule `Cc1ccc(NC(=O)NNC(=O)COc2ccc([N+](=O)[O-])cc2)cc1C`, the IC50 in series [5] was 34.5 µM (inactive).
As to `COc1ccc(C(=O)Nc2nnc(-c3ccco3)s2)cc1`, the figures for the EC50 (with HT-1080; in [6]) were > 50 µM (not active) and > 100 µM (not active), respectively. The IC50 (in [7]; in the series “cells”) was > 67.5 µM (inactive) each time. Moreover, the AC50 in [8] is > 52 µM (inactive); in series [9] it was 3.75 µM (active); in [10] it was > 52 µM (inactive); in series [11] it was 3.67 µM (active).
Turning to `O=C(c1ccccc1)[C-](C(=O)c1ccc(Cl)cc1)[n+]1ccc2ccccc2c1`, the values for the IC50 in series [12] and in series [13] were 9.23 µM (active) and > 100 µM (inactive), respectively.
As usually defined, the IC90 is the point of the concentration-response curve where the effect stands at 90%. As for `c1ccc(-c2nnc(SCCC3OCCCO3)o2)cc1`, the AC50 in series [14] was > 52 µM (inactive); at Cytochrome P450 2C9, “inconclusive”. Further, the half-maximal effective concentration (EC50) was 0.852 µM (active) in series [15], 0.936 µM (active) in [16], 0.604 µM (active) in series [17] and 1.55 µM (active) in series [19]. The IC90 in series [18] was 62 µM (active); in [20], 8 µM (active); in series [21], 8 µM (active).
On to `O=C(Nc1ccccc1Cl)c1cccc(NC(=O)C2CCCC2)c1`, for which the IC50 in series [22] was 0.202 µM (active); in [23], 5.78 µM (active).
On to `CCCc1cc(=O)oc2cc(OCc3ccc(C(=O)O)o3)ccc12`, for which the concentration for half-maximal inhibition (IC50) in [24] is 2.44 µM (active).
Take `Cc1c(C(=O)C2=C(O)C(=O)N(CCN3CCOCC3)C2c2ccco2)cnn1-c1ccccc1` (stereo not given): the IC50 in [25] is 21.1 µM (inactive).
As for `COc1ccc(C2=Nc3ccccc3NC(=O)C2N(C(=O)c2cc3ccccc3[nH]2)c2ccccc2)cc1` (stereo not given), the AC50 in the series on HeLa is > 52 µM (inactive).
